Data reported in patent publication US6664246B2, “Pharmaceutical composition” (MRC Holdings PTY Limited, priority 1999, dated 2003).

Experiments:
[1] = Dissolution of 1,25(OH)2D3 in iodised poppy seed oil; format: physicochemical; conditions: in one ml of iodised poppy seed oil
Description: For example, 2 mg of 1,25(OH)2 D3 can be readily dissolved in one ml of iodised poppy seed oil.

[2] = Radiolabelled vitamin D3 levels in liver, tumor and plasma after hepatic artery injection in Novikoff tumor bearing rats; format: in vivo, Sprague-Dawley rats; conditions: 1 hour post injection
Description: Male 300-350 gr. Sprague-Dawely rats were given a general anaesthetic (halothane) and a lapratomy performed. Then 5×10^6 Novikoff cells suspended in 100 μl of medium was instilled beneath the liver capsule using a 26G3/8-tuberculin needle. The abdominal incision was then closed with gut suture.
Animals were then left for 10 days with food and water available ad libitum and monitored daily to assess health and well being. After this period, animals were randomly allocated to one of the treatment groups (n=6 per group) and lapratomy was performed again. A catheter was inserted into the hepatic artery of the animal, through which radiolabelled vitamin D3 or vehicle injections were carried out. The different experimental groups treated were as follows:
After administration of the drug, the catheter was removed and the incision sutured. Animals were euthanased at 1 hour, 1, and 3 days post drug (or vehicle) administration. Just before euthanasing, 3 ml of blood was drawn through cardiac puncture from each animal.
Post mortem, the liver and the tumor of each animal was excised, weighed and frozen in the freezer until analysis. After tissue homogenization, liver, tumor or plasma was extracted with dichloromethane. The amount of hot vitamin D3 present in each sample was determined using a β-counter.

[3] = system: HepG2 cells; assay: [3H]thymidine incorporation cell proliferation assay; format: cell-based, human
Description: (§1) Following exposure of cells to vitamin D3 dissolved in normal or lipiodol (1% v/v) containing media. [^3H]thymidine incorporation assay and the trypan blue exclusion cell count methods were used to determine cell proliferation. To do this, cells were plated in 24 well tissue culture plates at 10^4 cells per well and incubated for 24 h in an incubator at 37° C. with humidified 5% CO2 atmosphere. The, medium was replaced with one containing vitamin D3(10^−11 to 10^−7 M) dissolved in either the normal medium or first dissolved in lipiodol and then mixed thoroughly with the medium to make a final lipiodol concentration of 1% (v/v). For acute dose studies, cells were exposed to one of the two drug containing media for 24 h, which were then replaced with drug free medium for the next four days. Whilst, in chronic treatment, cells were exposed for 5 days to different concentrations of the drug dissolved in one of the media described above. The media were changed on alternate days. At the end of treatment period, cell cultures were assayed for thymidine incorporation by the addition of 0.1μ Ci of [^3H]thymidine to each well for the last 4 h of culture. The amount of radioactivity incorporated into trichloroacetic acid precipitatable material was determined using a β-scintillation counter. Results are plotted as percentage inhibition relative to control. […]

[4] = system: HTC; assay: Screening of rat cell lines for responsiveness to vitamin D3; format: cell-based; conditions: 10^-6 M, read-out: inhibition of proliferation
Excerpt: (§2) 2. In order to find an appropriate cell line, which would grow in the rat tumor and also be responsive to vitamin D3, rat cell lines, Novikoff and HTC were screened for responsiveness to vitamin D3(10^−11-10^−6 M).

[5] = system: Novikoff; assay: as above; format: cell-based; conditions: 10^-11-10^-6 M
Excerpt: as §2

[6] = system: HepG2 cells; assay: Trypan blue exclusion cell count assay; format: cell-based, human
Description: as §1, with “At the end of treatment period, cell cultures were assayed for thymidine incorporation by the addition of 0.1μ Ci of [^3H]thymidine to each well for the last 4 h of culture.” left out, “counter.” for “counter. Results are plotted as percentage inhibition relative to control.”
For the cell count assay, cells were plated in six well plates at a concentration of 5×10^4 cells per well. […] At the end of the treatment period (5 days), cells were trypsinised and counted with a hemocytometer. […]

Compound	amount readily dissolved [1] [mg]	level of radioactivity in liver, tumor and plasma [2]	thymidine incorporation compared to control, acute treatment ([3]; 1 day exposure to drug, then 4 days medium without drug)	thymidine incorporation versus control, chronic treatment ([3]; 5 days exposure, all concentrations (10^-11 to 10^-7 M))	inhibition at 1 µM [4] [%]	responsiveness of cell line to vitamin D3 [5]	cell number, acute treatment ([6]; 10^-7 M, 1 day exposure, then 4 days drug free)	cell number, chronic treatment ([6]; 5 days exposure)
C=C1/C(=C\C=C2/CCC[C@]3(C)[C@@H]([C@H](C)CCCC(C)(C)O)CC[C@@H]23)C[C@@H](O)C[C@@H]1O [1,25(OH)2 D3, 1,25-dihydroxycholecalciferol]	2							
C=C1CC[C@H](O)C/C1=C/C=C1\CCC[C@]2(C)[C@@H]([C@H](C)CCCC(C)C)CC[C@@H]12 [vitamin D3, cholecalciferol]		high in all three samples	did not show a reduction in thymidine incorporation	significant reduction in thymidine incorporation	~50	non responsive	significant reduction in cell number	dose dependant decrease in call number
